Test results: patent publication US4629567A, “Alpha-1-antiprotease purification” (SmithKline-RIT, priority 1986, dated 1986)

Assays:
[1] = system: trypsin; assay: standard trypsin inhibition assay (microtest with chromogenic substrate S2444); assay type: biochemical; details: fixed amount of trypsin, 20 min at 37° C.
Experimental: The activity of the four AAT proteins purified by the method of the invention was compared to that of a standard AAT preparation derived from serum in a standard trypsin inhibition assay. The assay measures the inhibitory capacity of α1 -antitrypsin toward trypsin. It consists of a microtest using the chromogenic substrate S2444 (L-pyroglutamylglycyl-L-arginine, p-nitroanilide hydrochloride, Kabi Diagnostica, Stockholm, Sweden). The polystyrene microtest plates were incubated for 1 hr with 1% bovine serum albumin and washed extensively with distilled water. α1 -antitrypsin at various concentrations was incubated with a fixed amount of trypsin for 20 min at 37° C. in a 200- 1 final reaction volume of 0.1 M Tris-HCl pH 8.2/0.15 M NaCl/0.01 M EDTA/0.5% polyethylene glycol, Mr 6000). Samples were cooled slowly at room temperature and then exposed to the chromogenic substrate (20 μl of aqueous solution of 0.003 M S2444). After 5 min at room temperature, the reaction was stopped with 50 μl of 50% acetic acid.
Absorbance was read at 405 nm in a micro-ELISA automatic reader (Dynatech AM120). Calibration curves were determined for both trypsin and α1 -antitrypsin. Samples to be assayed were diluted serially in reaction buffer.

[2] = system: trypsin; assay: as above; assay type: biochemical; details: fixed amount of trypsin, 20 min at 37° C.; remark: listed apart in the source

4: AAT from human plasma, purified by the method of the invention [Sample 4]
% inhibition of trypsin activity ([1]; AAT concentration 0.25 ug/ml): 17% | % inhibition of trypsin activity ([1]; AAT concentration 1 ug/ml): 46% | % inhibition of trypsin activity ([1]; AAT concentration 2 ug/ml): 93% | Optical density (A410) ([2]; AAT concentration 0.25 ug/ml): 0.74 | Optical density (A410) ([2]; AAT concentration 1 ug/ml): 0.48 | Optical density (A410) ([2]; AAT concentration 2 ug/ml): 0.06

3: mature AAT (having N-met in place of the N-glu) expressed in yeast [Sample 3]
% inhibition of trypsin activity ([1]; AAT concentration 0.25 ug/ml): 7% | % inhibition of trypsin activity ([1]; AAT concentration 0.50 ug/ml): 17% | % inhibition of trypsin activity ([1]; AAT concentration 1.50 ug/ml): 47% | Optical density (A410) ([2]; AAT concentration 0.25 ug/ml): 0.95 | Optical density (A410) ([2]; AAT concentration 0.50 ug/ml): 0.84 | Optical density (A410) ([2]; AAT concentration 1.50 ug/ml): 0.54

standard: standard AAT preparation derived from serum
% inhibition of trypsin activity ([1]; AAT concentration 0.50 ug/ml): 11% | % inhibition of trypsin activity ([1]; AAT concentration 1 ug/ml): 33% | % inhibition of trypsin activity ([1]; AAT concentration 2 ug/ml): 66% | % inhibition of trypsin activity ([1]; AAT concentration 2.50 ug/ml): 74% | % inhibition of trypsin activity ([1]; AAT concentration 3.50 ug/ml): 82% | % inhibition of trypsin activity ([1]; AAT concentration 4.50 ug/ml): 90% | Optical density (A410) ([2]; AAT concentration 0.50 ug/ml): .78 | Optical density (A410) ([2]; AAT concentration 1 ug/ml): .63 | Optical density (A410) ([2]; AAT concentration 2 ug/ml): .32 | Optical density (A410) ([2]; AAT concentration 2.50 ug/ml): .24 | Optical density (A410) ([2]; AAT concentration 3.50 ug/ml): .17 | Optical density (A410) ([2]; AAT concentration 4.50 ug/ml): .1
